# Assay results as given in patent US8841233B2, “Herbicidal compositions comprising 4-amino-3-chloro-5-fluoro-6-(4-chloro-2-fluoro-3-methoxyphenyl) pyridine-2-carboxylic acid or a derivative thereof and 4-hydroxyphenyl-pyruvate dioxygenase (HPPD) inhibitors” (Dow Agrosciences LLC, priority 2012, dated 2014).
# Key:
# [1] = test system: DIGSA; assay: Post-emergence foliar-applied weed control, greenhouse (Example I); format: in vivo, Digitaria sanguinalis (L.) Scop.
# Source text: (§1) Evaluation of Post-emergence Foliar-Applied Herbicidal Mixtures for Weed Control in Direct Seeded Rice
# (§2) Seeds or nutlets of the desired test plant species were planted in a soil matrix prepared by mixing a loam or sandy loam soil (e.g., 28.6 percent silt, 18.8 percent clay, and 52.6 percent sand, with a pH of about 5.8 and an organic matter content of about 1.8 percent) and calcareous grit in an 80 to 20 ratio. The soil matrix was contained in plastic pots with a volume of 1 quart and a surface area of 83.6 square centimeters (cm^2). When required to ensure good germination and healthy plants, a fungicide treatment and/or other chemical or physical treatment was applied. The plants were grown for 8-22 days in a greenhouse with an approximate 14 h photoperiod which was maintained at about 29° C. during the day and 26° C. during the night. Nutrients (Peters Excel® 15-5-15 5-Ca 2-Mg and iron chelate) were applied in the irrigation solution as needed and water was added on a regular basis. Supplemental lighting was provided with overhead metal halide 1000-Watt lamps as necessary. The plants were employed for testing when they reached the first through fourth true leaf stage.
# (§3) Treatments consisted of the acid or esters of 4-amino-3-chloro-5-fluoro-6-(4-chloro-2-fluoro-3-methoxy-phenyl)pyridine-2-carboxylic acid (Compound A), each formulated as an SC (suspension concentrate), and various herbicidal components alone and in combination. Forms of Compound A were applied on an acid equivalent basis.
# (§4) Other herbicidal components were applied on an active ingredient basis and included 4-hydroxyphenyl pyruvate dioxygenase (HPPD)-inhibiting herbicides mesotrione formulated as Callisto®, sulcotrione formulated as Mikado®, pyrazolynate formulated as Sunbird® 10% GR, and benzobicyclon formulated as Benzobicyclon 3.5%.
# (§5) Treatment requirements were calculated based upon the rates being tested, the concentration of active ingredient or acid equivalent in the formulation, and a 12 mL application volume at a rate of 187 L/ha.
# (§6) For treatments comprised of formulated compounds, measured amounts of compounds were placed individually in 25 mL glass vials and diluted in a volume of 1.25% (v/v) Agri-Dex® crop oil concentrated to obtain 12× stock solutions. […] Application solutions were prepared by adding an appropriate amount of each stock solution (e.g., 1 mL) and diluted to the appropriate final concentrations with the addition of 10 mL of an aqueous mixture of 1.25% (v/v) crop oil concentrate so that the final spray solutions contained 1.25+/−0.05% (v/v) crop oil concentrate.
# (§7) For treatments comprised of formulated and technical compounds, weighed amounts of the technical materials were placed individually in 25 mL glass vials and dissolved in a volume of 97:3 v/v acetone/DMSO to obtain 12× stock solutions, and measured amounts of the formulated compounds were placed individually in 25 mL glass vials and diluted in a volume of 1.5% (v/v) crop oil concentrate or water to obtain 12× stock solutions. […] Application solutions were prepared by adding an appropriate amount of each stock solution (e.g., 1 mL) and diluted to the appropriate final concentrations with the addition of an appropriate amount of an aqueous mixture of 1.5% (v/v) crop oil concentrate so that the final spray solutions contained 1.25% (v/v) crop oil concentrate. As required, additional water and/or 97:3 v/v acetone/DMSO was added to individual application solutions so that the final acetone and DMSO concentrations of the application solutions being compared were 8.1% and 0.25%, respectively.
# (§8) All stock solutions and applications solutions were visually inspected for compound compatibility prior to application. Spray solutions were applied to the plant material with an overhead Mandel track sprayer equipped with a 8002E nozzles calibrated to deliver 187 L/ha over an application area of 0.503 m^2 at a spray height of 18 to 20 inches (46 to 50 cm) above average plant canopy height. […]
# [2] = test system: ECHCG; assay: as above; format: in vivo, Echinochloa crusgalli (L.) Beauv.
# Source text: as §1, §2, §3, §4, §5, §6, §7, §8
SMILES,Visual Weed Control (%) - 20 DAA DIGSA Obs ([1]; 4.38 gae/ha) [%],Visual Weed Control (%) - 20 DAA DIGSA Obs ([1]; 8.75 gae/ha) [%],Visual Weed Control (%) - 20 DAA DIGSA Obs ([1]; 17.5 gae/ha) [%],Visual Weed Control (%) - 20 DAA DIGSA Obs ([1]; 35 gae/ha) [%],Visual Weed Control (%) - 20 DAA ECHCG Obs ([2]; 4.38 gae/ha) [%],Visual Weed Control (%) - 22 DAA ECHCG Obs ([2]; 4.38 gae/ha) [%],Visual Weed Control (%) - 22 DAA ECHCG Obs ([2]; 8 gae/ha) [%],Visual Weed Control (%) - 22 DAA ECHCG Obs ([2]; 8.75 gae/ha) [%],Visual Weed Control (%) - 22 DAA ECHCG Obs ([2]; 16 gae/ha) [%],Visual Weed Control (%) - 22 DAA ECHCG Obs ([2]; 32 gae/ha) [%],Visual Weed Control (%) - 22 DAA ECHCG Obs ([2]; 5.3 gae/ha) [%],Visual Weed Control (%) - 20 DAA ECHCG Obs ([2]; 8.75 gae/ha) [%],Visual Weed Control (%) - 22 DAA ECHCG Obs ([2]; 10.6 gae/ha) [%]
"COc1c(Cl)ccc(-c2nc(C(=O)OCc3ccccc3)c(Cl)c(N)c2F)c1F [Compound A Benzyl Ester, benzyl ester of 4-amino-3-chloro-5-fluoro-6-(4-chloro-2-fluoro-3-methoxy-phenyl)pyridine-2-carboxylic acid]",25,40,50,38,40,40,35,60,65,80,–,–,–
"COc1c(Cl)ccc(-c2nc(C(=O)O)c(Cl)c(N)c2F)c1F [Compound A Acid, 4-amino-3-chloro-6-(4-chloro-2-fluoro-3-methoxyphenyl)-5-fluoropyridine-2-carboxylic acid]",40,45,45,–,25,–,–,–,–,–,65,80,55
